Test results: paper PMC7125202, “Targeting of radioactive platinum-bisphosphonate anticancer drugs to bone of high metabolic activity” (Scientific Reports, 2020)

Experiments:
[1] = In vivo biodistribution of cold Pt-species, Pt quantified by ICP-MS; set-up: species or system C57Bl/6N mice; conditions: 24 h after i.v. injection, 2.5 mM Pt
Method: The Pt-BP and Pt(NO3)2(en) complexes were administered intravenously in the tail vein of C57BL/6N mice (n = 5 per each platinum complex). Sterile saline solution (0.9% NaCl) was used to dissolve platinum complexes. The concentration of injected Pt-BP or Pt(NO3)2(en) solutions was 2.5 mM platinum, calculated based on the maximum tolerated dose for cisplatin of 6 mg per kg body weight of the mice[37]. The mice were euthanized with CO2 24 h after injection, after which blood (approximately 600 mg per mouse), liver, spleen, kidneys, heart, lungs, and bones (femur, humerus, tibia, and spine) were harvested. Approximately half of the tissues were prepared for inductively coupled plasma-mass spectrometry (ICP-MS) analysis by digestion in 65% (v/v) nitric acid at 75 °C for approximately three days until the tissues were digested completely. Each tissue was cut into three samples and the samples were weighed prior to digestion in nitric acid. The digested solutions were diluted with up to 6 ml of Milli-Q water to obtain 2% (v/v) nitric acid in order to measure platinum concentrations by ICP-MS (X series I, Thermo Electron Corporation). The detection limit for determining platinum concentration with ICP-MS was 1 ppb. The standard solutions were prepared from 1000 mg·1^−1 platinum ICP standard Certipur (1.70341.0100, Merck) ranging from 1 ppb to 2500 ppb. The measured isotopes for platinum were ^194Pt, ^195Pt, ^196Pt, and ^198Pt. Furthermore, scandium (^45Sc) was added as an internal standard, which was prepared with 1000 mg·1^−1 scandium standard Certipur (1.19513.0100, Merck) to correct for matrix effects and long-term fluctuations of the measurement signal. The platinum concentrations in the various tissues were calculated relative to 1 mg of the specific tissue and represented as ng Pt/mgtissue. Three replicates of Pt-BP and Pt(NO3)2(en) solutions with volumes and platinum concentrations identical to the solutions injected to the mice (200 µl and 2.5 mM platinum, respectively) were also analyzed for their platinum content using ICP-MS as control. The percentage of injected dose (%ID) of Pt-BP and Pt(NO3)2(en) in each mouse tissue 24 h after injection was calculated by dividing the total amount of platinum per tissue through the total amount of platinum detected in the control solutions[52].

genomic DNA = assay: Pt-DNA adducts quantification using High Resolution ICP-MS; format: in vivo, C57Bl/6N mice; conditions: 24 h after i.v. injection
Description: The remaining half of the tissues from all mice were dissected and weighed for DNA extraction. DNA was isolated using DNeasy Blood & Tissue Kit (Qiagen, USA) for soft tissue and ChargeSwitch® gDNA Plant Kit (Thermofisher, USA) for bone samples. The DNA was digested with DNase I Solution (Thermofisher, USA) and filtered using 0.2 µm acrodisc GHP before analysis for Pt content using high resolution-ICP-MS (Element2, Thermo Finnigan). The detection limit for determining the platinum concentration was 2 ng/l. The standard solutions were prepared from 1000 mg·1^−1 platinum ICP standard Certipur (1.70341.0100, Merck) ranging from 5 ppt to 10 ppb. The selected isotopes for platinum were ^194Pt and ^195Pt. Furthermore, thallium (Tl) was added as an internal standard and determined at a molecular mass of 205 Da, which was prepared using a 1000 mg·1^−1 thallium standard (CGTL-1, Inorganic Ventures) to correct for matrix effects and long-term fluctuations of the analytical signal. The Pt-DNA adduct concentration is represented as percentage of Pt involved in adduct formation to the total amount of Pt accumulated in the specific tissue.

[2] = In vivo biodistribution of radioactive Pt-species, excised tissues by gamma counting; set-up: species or system C57BL/6N mice; conditions: 11.2 MBq i.v.
Description: (§1) The ^195mPt-BP and ^195mPt(NO3)2(en) complexes were reconstituted in sterile saline solution (0.9% NaCl) and administered intravenously in the tail vein of C57BL/6N mice (n = 5 per each platinum complex). All mice received an intravenous injection with a dose of 11.2 ± 0.4 MBq ^195mPt. Immediately after injection and 1, 3, and 7 days after injection, images were acquired with U-SPECT-II/CT(MILabs) as reported previously[54],[55]. Mice were scanned under general anesthesia (isoflurane/O2) for 15 to 60 minutes using the 1.0-mm diameter pinhole mouse high sensitivity collimator tube, followed by a CT scan (spatial resolution […], 65 kV, […]) for anatomical reference. Scans were reconstructed with MILabs reconstruction software using an ordered-subset expectation maximization algorithm, with a voxel size of 0.4 mm. SPECT/CT scans were analyzed and maximum intensity projections were created using the Inveon Research Workplace software (IRW, version 4.1). A 3D volume of interest was drawn using CT threshold to differentiate soft tissue from skeletal tissue and uptake was quantified as the percentage injected dose per gram (%ID/g), assuming a tissue density of 1 g/cm^3. The hot spot in the skeletal tissue region of interest (ROI) was chosen with the location of the edge of the ROI contour representing 75% of maximum intensity. The mice from ^195mPt(NO3)2(en) group were euthanized with CO2 after 3 days due to excessive loss of body weight, whereas mice from treated with ^195mPt-BP were sacrificed at the end of experiments. After euthanizing the animals, blood (approximately 600 mg per mouse), liver, spleen, kidneys, heart, lungs, and bones (femur, humerus, tibia, and spine) were harvested and analyzed with a gamma counter (1470 Wizard, Perkin Elmer).

[3] = micro-SPECT/CT quantification of 195mPt biodistribution; format: in vivo, C57BL/6N mice
Description: as §1

[4] = Laser ablation ICP-MS imaging of Pt co-localization with calcium in mice tibia; format: in vivo; conditions: proximal tibia sections; for percentage of Pt co-localized with calcium: LA-ICP-MS
Method: The experimental procedure was carried out as reported previously. The mice tibias were incubated in neutral buffered formaldehyde for 36 h. Later, tibias were dehydrated in ascending grades of 70% to 100% ethanol and embedded in poly(methyl methacrylate) (pMMA) resin, freshly prepared by mixing 600 mL of methyl methacrylate monomer (Acros Organics BVBA, Geel, Belgium), 60 ml dibutyl phthalate (Merck KGaA, Darmstadt, Germany) and 1.25 g perkadox®16 (Aldrich, Netherlands). The polymerization was followed by cutting serial horizontal sections (perpendicular to the tibia sample) of 5 µm thickness within the trabecular region of interest using an RM2155 microtome with a TC 65 blade (Leica Microsystems GmbH, Wetzlar, Germany). Microscopic images were obtained using an inverted fluorescence/bright field microscope (BZ-9000, Keyence Deutschland GmbH, Neu-Isenburg, Germany). For image recording and processing, the software BZ-II Viewer and BZ-II Analyzer were used, respectively. To calculate the percentage of platinum co-localized with calcium, the background of the image and all pixels without hard bone tissue were excluded from the calculations. A pixel is considered to be background if its calcium intensity is below 15%. The platinum concentrations of the remaining pixels were then added up and divided by the sum of the entire platinum image to yield the percentage of platinum co-localized with calcium.

[5] = Body weight, behaviour and toxicity of mice after injection of radioactive Pt-species; format: in vivo, C57BL/6N mice; conditions: for body weight and behavioral changes: 11.2 ± 0.4 MBq 195mPt i.v., first 3 days p.i. for 195mPt(NO3)2(en)
Method: All in vivo work was conducted in accordance with ISO standards and the principles set forth by the Revised Dutch Act on Animal Experimentation. The in vivo experiments were approved by the institutional Animal Welfare Committee of the Radboud University Medical Center (Radboudumc), Nijmegen, the Netherlands. For both the experiment, 10 male C57Bl/6N mice (Charles River), with an average weight of ~25 g and an age of approximately 6–8 weeks were housed in filter-topped cages (5 mice per cage) under non-sterile standard conditions provided with standard animal food and water ad libitum. The mice were allowed to adapt to laboratory conditions for 1 week before experimental use. The humane end point were defined as follows, body weight gain of> 20% within 10 days, no water or food intake, weight loss of >15% within 1–2 days or> 20% of normal body weight of that animal, serious circulatory or respiratory problems, behavioural changes (hyperactivity, passive, auto-mutilation), and morbidities such as impaired mobility or lethargy.
as §1, with “The mice from ^195mPt(NO3)2(en) group were euthanized with CO2 after 3 days due to excessive loss of body weight, whereas mice from treated with ^195mPt-BP were sacrificed at the end of experiments.” left out

[6] = Whole-body 195mPt radioactivity in mice measured using an ionization chamber; format: in vivo; conditions: day 7
Description: Figure S3. ^195mPt radioactivity in mice. Percentage of injected dose (%ID) of ^195mPt-BP and ^195mPt(NO3)2(en) in mice, measured using an ionization chamber. ** P < 0.01; ****P < 0.0001 as determined by two-way ANOVA with a Bonferroni (multiple comparisons) post-hoc test.

Ehrlich solid carcinoma = tested on: Ehrlich solid carcinoma; set-up: method as in doi:10.1007/s10967-015-4053-1; conditions: cited from earlier work
zebrafish embryos = assay: Phenotypic assessment of drug-treated zebrafish embryos; format: in vivo, zebrafish (Danio rerio); conditions: Pt-BP 5-100 µM, cisplatin 30 µM
Method: The zebrafish (Danio rerio) strains were kept under standard conditions (28 °C in E3 buffer) until 48 hours post fertilization (hpf) as described previously. All animal experiments were conducted at larval stages before the point of independent feeding and were in agreement with the animal protection law (Tierschutzgesetz).
48 hpf wildtype embryos were separated into 6 groups (n = 20 embryos/group), i.e., control (untreated) and embryos treated with 5 µM, 10 µM, 50 µM, and 100 µM Pt-BP as well as 30 µM cisplatin. Both types of compounds were added externally to the medium and the embryos were incubated at 33 °C for the duration of the experiment. The embryos were assessed each day for phenotypic toxicity until 2 days post treatment (48 hpt) and imaged live in an Olympus MVX10 microscope.

[7] = set-up: method as in PMID 29037232; conditions: cited from earlier work

NCCN.O=[N+]([O-])[O-].O=[N+]([O-])[O-].[Pt+2] [Pt(NO3)2(en), reference compound]
Pt uptake in hard tissue [1]: 2.69 ± 0.26 %ID/g
Pt uptake in kidney [1]: 3.38 ± 0.28 %ID/g
Pt uptake in liver [1]: 1.54 ± 0.33 %ID/g
Pt uptake in spleen [1]: 0.38 ± 0.04 %ID/g
Pt accumulation in hard tissue (bone) ([1]; normalized for tissue weight): ~ 1 ng Pt/mg tissue
Pt-DNA adduct formation relative to total Pt uptake, kidney (genomic DNA): 4.8%
Pt-DNA adduct formation relative to total Pt uptake, spleen (genomic DNA): 9.8%

NCCN.O=[N+]([O-])[O-].O=[N+]([O-])[O-].[195Pt+2] [^195mPt(NO3)2(en), reference compound]
uptake in bones (femur, tibia, humerus) ([2]; gamma counting after 3 days): 1.4 ± 0.15 %ID/g
uptake in kidneys ([2]; gamma counting after 3 days): 3.95 ± 0.24 %ID/g
uptake in liver ([2]; gamma counting after 3 days): 3.22 ± 0.28 %ID/g
uptake in lungs ([2]; gamma counting after 3 days): 1.08 ± 0.16 %ID/g
uptake in spleen ([2]; gamma counting after 3 days): 2.76 ± 0.67 %ID/g
hard-to-soft tissue uptake ratio ([3]; 1 h, excluding bladder uptake): 1
hard-to-soft tissue uptake ratio ([3]; 24 h): 1.2
hard-to-soft tissue uptake ratio ([3]; 72 h): 1.2
uptake in bone (hard tissue) ([3]; micro-SPECT/CT, 1 h p.i.): 1.5 ± 0.1 %I.D/g
uptake in soft tissue ([3]; micro-SPECT/CT, 1 h p.i.): 1.43 ± 0.21 %I.D/g
Pt not co-localized with Ca (Pt in soft tissue of the proximal tibia) ([4]; Fig. 4C): 10%
percentage of Pt co-localized with calcium [4]: 37.3%
co-localization of Pt with Ca relative to that of 195mPt-BP ([4]; total amount of Pt, Fig. 4C): 27%
body weight and behavioral changes [5]: significant body weight loss
weight loss ([5]; humane end point, euthanized after 3 days): more than 20%

NCCN.NCCN.O.O.O.O=S(=O)([O-])O.[NH3+]CC1(O)P2(=O)[O][195Pt][O]P1(=O)[O][195Pt][O]2 (stereo not drawn) [^195mPt-BP]
uptake in femur ([2]; gamma counting after 7 days): 3.1 ± 0.37 %ID/g
uptake in humerus ([2]; gamma counting after 7 days): 2.53 ± 0.33 %ID/g
uptake in kidneys ([2]; gamma counting after 7 days): 0.43 ± 0.16 %ID/g
uptake in soft tissues except kidneys ([2]; gamma counting after 7 days): < 0.11 %ID/g
uptake in tibia ([2]; gamma counting after 7 days): 2.86 ± 0.46 %ID/g
hard-to-soft tissue uptake ratio ([3]; 1 h, excluding bladder uptake): 3.3
hard-to-soft tissue uptake ratio ([3]; 24 h): 6
hard-to-soft tissue uptake ratio ([3]; 72 h): 6.7
uptake in bone (hard tissue) ([3]; micro-SPECT/CT, 1 h p.i.): 1.8 ± 0.25 %I.D/g
uptake in soft tissue ([3]; micro-SPECT/CT, 1 h p.i.): 0.93 ± 0.27 %I.D/g
uptake in soft tissue ([3]; micro-SPECT/CT, 24 h): 0.18 ± 0.03 %I.D/g
uptake in hot spots in bone (ROI 75% of maximum intensity) compared to 195mPt(NO3)2(en) ([3]; micro-SPECT/CT, all time points): twofold increased uptake
uptake in bone (hard tissue) ([3]; micro-SPECT/CT, from 24 h until day 7): 1.0 ± 0.12 %I.D/g
Pt not co-localized with Ca (Pt in soft tissue of the proximal tibia) ([4]; Fig. 4C): 20%
accumulation of Pt in bone compared to 195mPt(NO3)2(en) ([4]; Fig. 4C): almost a fourfold increased accumulation
percentage of Pt co-localized with calcium [4]: 73.5%
body weight and behavioral changes [5]: no behavioral or body changes were observed
Pt-based toxicity ([5]; over a period of 7 days): did not observe any Pt-based toxicity
whole-body radioactivity [6]: 2 %ID

N.N.[Cl][Pt][Cl] [^195mPt-cisplatin]
inhibition of tumor growth, more effective compared to non-radioactive cisplatin (Ehrlich solid carcinoma): 30%

N.N.[Cl][Pt][Cl] [cisplatin]
visual inspection of kidneys based on size and shape (zebrafish embryos): apparent shrinkage
rapid weight loss followed by recovery within a week ([7]; mice at maximum tolerated dose): ~ 10%
maximum tolerated dose ([7]; mice): 6 mg/kg
